Experimental data from the NIST ThermoML archive (doi:10.1016/j.fluid.2010.01.023).
“And” between values parts separate entries of the source, which are not always exact repeats. Equal values may be shown once. ± gives the expanded uncertainty stated by the source.

Test: xn = mol fraction of the nth substance listed
Settings: Fluid (supercritical or subcritical phases), quasistatic thermogram and barogram, x2 = 0.7393

N [ammonia] + O
Settings | thermal pressure coefficient
594.84 K, Mass density=120.03 kg/m3 | 91 ± 3 kPa/K
594.84 K, Mass density=147.43 kg/m3 | 126 ± 4 kPa/K
595.16 K, Mass density=376.89 kg/m3 | 205 kPa/K and 295 kPa/K
595.35 K, Mass density=147.43 kg/m3 | 124 ± 4 kPa/K
595.35 K, Mass density=456.58 kg/m3 | 451 ± 2 kPa/K
595.53 K, Mass density=342.18 kg/m3 | 199 ± 1 kPa/K
595.61 K, Mass density=285.71 kg/m3 | 196 ± 6 kPa/K
595.78 K, Mass density=309.95 kg/m3 | 200 ± 6 kPa/K
595.78 K, Mass density=376.89 kg/m3 | 296 ± 2 kPa/K
596.04 K, Mass density=160.07 kg/m3 | 183 ± 6 kPa/K
596.04 K, Mass density=227.54 kg/m3 | 195 ± 6 kPa/K
596.47 K, Mass density=308.35 kg/m3 | 205 ± 6 kPa/K
596.73 K, Mass density=307.35 kg/m3 | 201 ± 6 kPa/K
596.9 K, Mass density=271.09 kg/m3 | 199 ± 6 kPa/K
597.08 K, Mass density=342.18 kg/m3 | 198 ± 1 kPa/K
597.33 K, Mass density=160.07 kg/m3 | 151 ± 5 kPa/K
597.33 K, Mass density=311.19 kg/m3 | 199 ± 6 kPa/K
597.33 K, Mass density=376.89 kg/m3 | 306 ± 2 kPa/K
597.35 K, Mass density=160.07 kg/m3 | 174 kPa/K and 147 kPa/K
597.42 K, Mass density=295.31 kg/m3 | 196 ± 6 kPa/K
597.5 K, Mass density=188.05 kg/m3 | 187 ± 6 kPa/K
597.56 K, Mass density=342.18 kg/m3 | 197 kPa/K and 261 kPa/K
597.59 K, Mass density=218.92 kg/m3 | 197 ± 6 kPa/K
597.76 K, Mass density=292.97 kg/m3 | 199 ± 6 kPa/K
598.19 K, Mass density=224.53 kg/m3 | 198 ± 6 kPa/K
598.28 K, Mass density=376.89 kg/m3 | 311 ± 1 kPa/K
598.33 K, Mass density=329 kg/m3 | 195 kPa/K and 249 kPa/K
598.36 K, Mass density=160.07 kg/m3 | 140 ± 4 kPa/K
598.45 K, Mass density=320.33 kg/m3 | 197 ± 6 kPa/K
598.54 K, Mass density=297.6 kg/m3 | 191 ± 6 kPa/K
598.57 K, Mass density=301.94 kg/m3 | 199 ± 6 kPa/K
598.63 K, Mass density=291.16 kg/m3 | 201 ± 6 kPa/K
598.71 K, Mass density=297.6 kg/m3 | 192 ± 6 kPa/K
598.96 K, Mass density=243.97 kg/m3 | 201 ± 6 kPa/K
598.96 K, Mass density=320.33 kg/m3 | 192 kPa/K and 246 kPa/K
598.97 K, Mass density=376.89 kg/m3 | 311 ± 1 kPa/K
599.05 K, Mass density=160.07 kg/m3 | 139 ± 4 kPa/K
599.05 K, Mass density=299.79 kg/m3 | 192 ± 6 kPa/K
599.05 K, Mass density=329 kg/m3 | 258 ± 9 kPa/K
599.14 K, Mass density=160.07 kg/m3 | 137 ± 4 kPa/K
599.22 K, Mass density=214.43 kg/m3 | 201 ± 6 kPa/K
599.42 K, Mass density=312.91 kg/m3 | 192 kPa/K and 244 kPa/K
599.44 K, Mass density=320.33 kg/m3 | 250 ± 8 kPa/K
599.52 K, Mass density=206.01 kg/m3 | 198 ± 6 kPa/K
599.57 K, Mass density=311.19 kg/m3 | 193 kPa/K and 240 kPa/K
599.57 K, Mass density=456.58 kg/m3 | 456 ± 2 kPa/K
599.67 K, Mass density=309.95 kg/m3 | 192 kPa/K and 236 kPa/K
599.78 K, Mass density=308.35 kg/m3 | 192 kPa/K and 234 kPa/K
599.89 K, Mass density=307.35 kg/m3 | 192 kPa/K and 231 kPa/K
599.91 K, Mass density=295.31 kg/m3 | 196 ± 6 kPa/K
600.02 K, Mass density=305.44 kg/m3 | 192 kPa/K and 229 kPa/K
600.17 K, Mass density=195.99 kg/m3 | 195 ± 6 kPa/K
600.17 K, Mass density=303.47 kg/m3 | 192 kPa/K and 229 kPa/K
600.29 K, Mass density=301.94 kg/m3 | 192 kPa/K and 228 kPa/K
600.48 K, Mass density=299.79 kg/m3 | 193 kPa/K and 226 kPa/K
600.59 K, Mass density=309.95 kg/m3 | 248 ± 9 kPa/K
600.63 K, Mass density=297.6 kg/m3 | 193 kPa/K and 225 kPa/K
600.68 K, Mass density=230.31 kg/m3 | 200 ± 6 kPa/K
600.77 K, Mass density=308.35 kg/m3 | 240 ± 8 kPa/K
600.81 K, Mass density=295.31 kg/m3 | 193 kPa/K and 224 kPa/K
600.93 K, Mass density=292.97 kg/m3 | 194 kPa/K and 224 kPa/K
600.94 K, Mass density=260.02 kg/m3 | 193 ± 6 kPa/K
600.94 K, Mass density=305.44 kg/m3 | 237 ± 7 kPa/K
601.02 K, Mass density=291.16 kg/m3 | 192 ± 6 kPa/K
601.02 K, Mass density=342.18 kg/m3 | 281 ± 1 kPa/K
601.05 K, Mass density=291.16 kg/m3 | 193 kPa/K and 223 kPa/K
601.11 K, Mass density=320.33 kg/m3 | 257 ± 8 kPa/K
601.16 K, Mass density=188.05 kg/m3 | 186 kPa/K and 168 kPa/K
601.19 K, Mass density=227.54 kg/m3 | 200 ± 6 kPa/K
601.28 K, Mass density=214.43 kg/m3 | 203 ± 6 kPa/K
601.28 K, Mass density=301.94 kg/m3 | 234 ± 7 kPa/K
601.34 K, Mass density=285.71 kg/m3 | 196 kPa/K and 222 kPa/K
601.37 K, Mass density=206.01 kg/m3 | 199 ± 6 kPa/K
601.37 K, Mass density=224.53 kg/m3 | 201 ± 6 kPa/K
601.45 K, Mass density=297.6 kg/m3 | 225 ± 7 kPa/K
601.45 K, Mass density=299.79 kg/m3 | 239 ± 7 kPa/K
601.54 K, Mass density=295.31 kg/m3 | 238 ± 8 kPa/K
601.71 K, Mass density=230.31 kg/m3 | 202 ± 6 kPa/K
601.71 K, Mass density=376.89 kg/m3 | 327 ± 1 kPa/K
601.75 K, Mass density=195.99 kg/m3 | 195 kPa/K and 181 kPa/K
602.05 K, Mass density=218.92 kg/m3 | 201 ± 6 kPa/K
602.05 K, Mass density=271.09 kg/m3 | 197 kPa/K and 217 kPa/K
602.22 K, Mass density=312.91 kg/m3 | 261 ± 8 kPa/K
602.26 K, Mass density=206.01 kg/m3 | 199 kPa/K and 188 kPa/K
602.31 K, Mass density=307.35 kg/m3 | 241 ± 7 kPa/K
602.39 K, Mass density=376.89 kg/m3 | 320 ± 1 kPa/K
602.45 K, Mass density=260.02 kg/m3 | 199 kPa/K and 215 kPa/K
602.65 K, Mass density=456.58 kg/m3 | 458 ± 2 kPa/K
602.74 K, Mass density=214.43 kg/m3 | 202 kPa/K and 195 kPa/K
602.74 K, Mass density=342.18 kg/m3 | 286 ± 1 kPa/K
602.85 K, Mass density=218.92 kg/m3 | 202 kPa/K and 198 kPa/K
602.91 K, Mass density=243.97 kg/m3 | 202 kPa/K and 208 kPa/K
602.96 K, Mass density=224.53 kg/m3 | 202 kPa/K and 200 kPa/K
602.96 K, Mass density=230.31 kg/m3 | 202 kPa/K and 204 kPa/K
602.97 K, Mass density=227.54 kg/m3 | 202 kPa/K and 203 kPa/K
603.08 K, Mass density=311.19 kg/m3 | 256 ± 8 kPa/K
603.34 K, Mass density=206.01 kg/m3 | 182 ± 6 kPa/K
603.76 K, Mass density=218.92 kg/m3 | 196 ± 6 kPa/K
603.85 K, Mass density=214.43 kg/m3 | 191 ± 6 kPa/K
603.85 K, Mass density=227.54 kg/m3 | 203 ± 6 kPa/K
604.11 K, Mass density=224.53 kg/m3 | 200 ± 6 kPa/K
604.11 K, Mass density=230.31 kg/m3 | 205 ± 6 kPa/K
604.36 K, Mass density=243.97 kg/m3 | 210 ± 6 kPa/K
605.39 K, Mass density=329 kg/m3 | 275 ± 8 kPa/K
605.47 K, Mass density=147.43 kg/m3 | 120 ± 4 kPa/K
606.58 K, Mass density=376.89 kg/m3 | 333 ± 1 kPa/K
606.76 K, Mass density=195.99 kg/m3 | 172 ± 5 kPa/K
607.78 K, Mass density=342.18 kg/m3 | 290 ± 1 kPa/K
607.95 K, Mass density=376.89 kg/m3 | 332 ± 1 kPa/K
608.04 K, Mass density=309.95 kg/m3 | 261 ± 8 kPa/K
608.55 K, Mass density=160.07 kg/m3 | 131 ± 4 kPa/K
609.42 K, Mass density=320.33 kg/m3 | 279 ± 8 kPa/K
609.48 K, Mass density=195.99 kg/m3 | 168 ± 5 kPa/K
609.71 K, Mass density=308.35 kg/m3 | 272 ± 8 kPa/K
609.99 K, Mass density=295.31 kg/m3 | 250 ± 8 kPa/K
610.25 K, Mass density=312.91 kg/m3 | 270 ± 8 kPa/K
610.59 K, Mass density=311.19 kg/m3 | 265 ± 8 kPa/K
610.85 K, Mass density=307.35 kg/m3 | 266 ± 8 kPa/K
611.44 K, Mass density=299.79 kg/m3 | 257 ± 8 kPa/K
611.55 K, Mass density=342.18 kg/m3 | 299 ± 1 kPa/K
611.61 K, Mass density=230.31 kg/m3 | 209 ± 6 kPa/K
611.61 K, Mass density=301.94 kg/m3 | 259 ± 8 kPa/K
612.63 K, Mass density=376.89 kg/m3 | 342 ± 1 kPa/K
615.35 K, Mass density=160.07 kg/m3 | 131 ± 4 kPa/K
616.03 K, Mass density=311.19 kg/m3 | 277 ± 9 kPa/K
616.12 K, Mass density=312.91 kg/m3 | 269 ± 8 kPa/K
616.28 K, Mass density=309.95 kg/m3 | 261 ± 8 kPa/K
616.37 K, Mass density=329 kg/m3 | 285 ± 9 kPa/K
617.05 K, Mass density=299.79 kg/m3 | 260 ± 8 kPa/K
618.4 K, Mass density=342.18 kg/m3 | 304 ± 1 kPa/K
620.1 K, Mass density=297.6 kg/m3 | 260 ± 8 kPa/K
624.91 K, Mass density=160.07 kg/m3 | 132 ± 4 kPa/K
633.33 K, Mass density=160.07 kg/m3 | 134 ± 4 kPa/K
